Measured values from patent publication EP0460690A2, “Use of phenolsulfophthaline derivatives for the treatment of osteoporosis” (THE GREEN CROSS CORPORATION, priority 1990, dated 1991).

Key:
[1] = biological target: T1, estrogen receptor in mastocarcinoma (Homo sapiens, UniProt P03372); conditions: literature report; cited from earlier work
T1 construct: host or cells: mastocarcinoma
T1 sequence (P03372 1-595): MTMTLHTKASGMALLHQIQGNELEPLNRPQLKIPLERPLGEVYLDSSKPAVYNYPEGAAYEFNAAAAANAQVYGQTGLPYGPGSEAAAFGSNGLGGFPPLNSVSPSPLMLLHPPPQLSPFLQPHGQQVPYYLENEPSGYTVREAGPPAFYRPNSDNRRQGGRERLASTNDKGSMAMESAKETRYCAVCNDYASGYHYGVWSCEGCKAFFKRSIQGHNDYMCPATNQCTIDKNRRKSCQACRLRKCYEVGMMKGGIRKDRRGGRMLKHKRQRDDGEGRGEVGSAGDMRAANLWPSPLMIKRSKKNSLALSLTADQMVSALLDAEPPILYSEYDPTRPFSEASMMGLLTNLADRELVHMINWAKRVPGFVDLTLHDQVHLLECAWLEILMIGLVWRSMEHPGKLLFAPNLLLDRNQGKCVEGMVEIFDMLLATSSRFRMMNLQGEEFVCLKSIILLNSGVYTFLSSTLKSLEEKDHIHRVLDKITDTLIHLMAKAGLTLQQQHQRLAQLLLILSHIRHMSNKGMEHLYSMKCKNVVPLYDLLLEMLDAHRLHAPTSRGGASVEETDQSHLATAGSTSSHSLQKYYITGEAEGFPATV

Wister female rats = assay: Acute toxicity, oral administration; assay type: in vivo; conditions: dispersed in 5 % Tween 20, eight rats, dose of 1 g/kg body weight
Source text: Compound 1 dispersed in 5 % Tween 20 was orally administered to eight Wister female rats aged 7 to 8 months.

[2] = system: rats suffering from osteoporosis; assay: Bone mass increase in osteoporosis rats (ovariectomy and sciatic nerve excision); assay type: in vivo, Wister female rats; conditions: thigh bone, oral 100 µg/kg body weight everyday in 5 % Tween 20, after 12 weeks; for Bone Mass Ash wt./unit vol.: carrier 370 ± 19, normal rats 387 ± 16; for Bone Mass Dry wt./unit vol.: carrier 821 ± 15, normal rats 976 ± 11
Source text: The effects of the phenolsulfophthalein compounds of the present invention of increasing bone mass were examined by using rats suffering from osteoporosis.
Wister female rats aged 7 to 8 months (8 rats per group) were subjected to ovariectomy and sciatic nerve excision to thereby cause osteoporosis. Starting from the next day after the operation, compound 1, as described above, and compound 2 (represented by formula (I), wherein R¹ and R² are both acetyl groups) each dispersed in 5 % Tween 20 were orally administered in a dose of 100 µg/kg body weight everyday. After 12 weeks, the thigh bones of the animals were collected and the volume, dry weight and ash weight were measured. Thus the dry weight and ash weight per unit volume were determined.

| SMILES | binding to estrogen receptor [1] | mortality (acute toxicity) (Wister female rats) | Bone Mass Ash wt./unit vol. [2] [mg/mL] | Bone Mass Dry wt./unit vol. [2] [mg/mL] |
| --- | --- | --- | --- | --- |
| O=S(=O)(Oc1ccccc1)c1ccccc1C(c1ccc(O)cc1)c1ccc(O)cc1 [drawing 1] | binding to an estrogen receptor |  |  |  |
| O=S(=O)(Oc1ccccc1)c1ccccc1C(c1ccc(O)cc1)c1ccc(O)cc1 [compound 1] |  | no animal died | 385 ± 12 | 861 ± 12 |
| CC(=O)Oc1ccc(C(c2ccc(OC(C)=O)cc2)c2ccccc2S(=O)(=O)Oc2ccccc2)cc1 [compound 2] |  |  | 383 ± 14 | 856 ± 15 |
